From PubChem BioAssay (NCI)
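Each compound was tested at five concentrations against cells in 96-well plates for 48 hours. The concentration for 50% growth inhibition is given as GI50. Definition used: TGI = concentration required for complete inhibition of growth.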

Columns and labels:
Assay in all cases: NCI tumour cell line growth inhibition, 48 h
786-0 renal = tested on: 786-0 renal
A498 renal = tested on: A498 renal
A549 NSCLC = tested on: A549 NSCLC
ACHN renal = tested on: ACHN renal
BT-549 breast = tested on: BT-549 breast
CAKI-1 renal = tested on: CAKI-1 renal
CCRF-CEM leukemia = tested on: CCRF-CEM leukemia
COLO 205 colon = tested on: COLO 205 colon
DU-145 prostate = tested on: DU-145 prostate
EKVX NSCLC = tested on: EKVX NSCLC
HCC-2998 colon = tested on: HCC-2998 colon
HCT-116 colon = tested on: HCT-116 colon
HCT-15 colon = tested on: HCT-15 colon
HL-60(TB) leukemia = tested on: HL-60(TB) leukemia
HOP-62 NSCLC = tested on: HOP-62 NSCLC
HOP-92 NSCLC = tested on: HOP-92 NSCLC
HS 578T breast = tested on: HS 578T breast
HT29 colon = tested on: HT29 colon
IGROV1 ovarian = tested on: IGROV1 ovarian
K-562 leukemia = tested on: K-562 leukemia
KM12 colon = tested on: KM12 colon
M14 melanoma = tested on: M14 melanoma
MALME-3M melanoma = tested on: MALME-3M melanoma
MCF7 breast = tested on: MCF7 breast
MDA-MB-231 breast = tested on: MDA-MB-231 breast
MOLT-4 leukemia = tested on: MOLT-4 leukemia
NCI-H226 lung = tested on: NCI-H226 lung
NCI-H23 lung = tested on: NCI-H23 lung
NCI-H460 lung = tested on: NCI-H460 lung
NCI-H522 lung = tested on: NCI-H522 lung
NCI/ADR-RES ovarian = tested on: NCI/ADR-RES ovarian
OVCAR-4 ovarian = tested on: OVCAR-4 ovarian
OVCAR-5 ovarian = tested on: OVCAR-5 ovarian
OVCAR-8 ovarian = tested on: OVCAR-8 ovarian
PC-3 prostate = tested on: PC-3 prostate
RPMI-8226 leukemia = tested on: RPMI-8226 leukemia
RXF 393 renal = tested on: RXF 393 renal
SF-268 CNS = tested on: SF-268 CNS
SF-295 CNS = tested on: SF-295 CNS
SF-539 CNS = tested on: SF-539 CNS
SK-MEL-2 melanoma = tested on: SK-MEL-2 melanoma
SK-MEL-28 melanoma = tested on: SK-MEL-28 melanoma
SK-MEL-5 melanoma = tested on: SK-MEL-5 melanoma
SK-OV-3 ovarian = tested on: SK-OV-3 ovarian
SN12C renal = tested on: SN12C renal
SNB-19 CNS = tested on: SNB-19 CNS
SNB-75 CNS = tested on: SNB-75 CNS
SR leukemia = tested on: SR leukemia
SW-620 colon = tested on: SW-620 colon
T-47D breast = tested on: T-47D breast
TK-10 renal = tested on: TK-10 renal
U251 CNS = tested on: U251 CNS
UACC-257 melanoma = tested on: UACC-257 melanoma
UACC-62 melanoma = tested on: UACC-62 melanoma
UO-31 renal = tested on: UO-31 renal

O=C(Nc1ccc(F)cc1)c1cc(-c2ccc(F)cc2F)ccc1O
GI50 (786-0 renal): 3.31 µM
TGI (786-0 renal): 16.7 µM
GI50 (A498 renal): 1.47 µM
TGI (A498 renal): 4.13 µM
GI50 (A549 NSCLC): 3.25 µM
TGI (A549 NSCLC): > 100 µM
GI50 (ACHN renal): 2.77 µM
TGI (ACHN renal): 8.51 µM
GI50 (BT-549 breast): 2.78 µM
TGI (BT-549 breast): 18.6 µM
GI50 (CAKI-1 renal): 1.95 µM
TGI (CAKI-1 renal): 6 µM
GI50 (CCRF-CEM leukemia): 3.29 µM
TGI (CCRF-CEM leukemia): > 100 µM
GI50 (COLO 205 colon): 17.1 µM
TGI (COLO 205 colon): 50.1 µM
GI50 (DU-145 prostate): 3.33 µM
TGI (DU-145 prostate): > 100 µM
GI50 (EKVX NSCLC): 2.61 µM
TGI (EKVX NSCLC): 9.17 µM
GI50 (HCC-2998 colon): 3.12 µM
TGI (HCC-2998 colon): 42.8 µM
GI50 (HCT-116 colon): 2.81 µM
TGI (HCT-116 colon): 12.6 µM
GI50 (HCT-15 colon): 2.89 µM
TGI (HCT-15 colon): 13 µM
GI50 (HL-60(TB) leukemia): 1.93 µM
TGI (HL-60(TB) leukemia): 5.04 µM
GI50 (HOP-62 NSCLC): 3.13 µM
TGI (HOP-62 NSCLC): 17.1 µM
GI50 (HOP-92 NSCLC): 1.47 µM
TGI (HOP-92 NSCLC): 5.24 µM
GI50 (HS 578T breast): 2.79 µM
TGI (HS 578T breast): 9.62 µM
GI50 (HT29 colon): 12.7 µM
TGI (HT29 colon): > 100 µM
GI50 (IGROV1 ovarian): 3.45 µM
TGI (IGROV1 ovarian): > 100 µM
GI50 (K-562 leukemia): 2.81 µM
TGI (K-562 leukemia): > 100 µM
GI50 (KM12 colon): 3.03 µM
TGI (KM12 colon): 9.93 µM
GI50 (M14 melanoma): 3.32 µM
TGI (M14 melanoma): > 100 µM
GI50 (MALME-3M melanoma): 1.92 µM
TGI (MALME-3M melanoma): 5.64 µM
GI50 (MCF7 breast): 2.31 µM
TGI (MCF7 breast): 10.1 µM
GI50 (MDA-MB-231 breast): 2.38 µM
TGI (MDA-MB-231 breast): 6.47 µM
GI50 (MOLT-4 leukemia): 2.57 µM
TGI (MOLT-4 leukemia): 7.9 µM
GI50 (NCI-H226 lung): 2.88 µM
TGI (NCI-H226 lung): 9.82 µM
GI50 (NCI-H23 lung): 2.47 µM
TGI (NCI-H23 lung): 7.78 µM
GI50 (NCI-H460 lung): 2.98 µM
TGI (NCI-H460 lung): 12.8 µM
GI50 (NCI-H522 lung): 1.83 µM
TGI (NCI-H522 lung): 8.3 µM
GI50 (NCI/ADR-RES ovarian): 2.49 µM
TGI (NCI/ADR-RES ovarian): 8.51 µM
GI50 (OVCAR-4 ovarian): 2.74 µM
TGI (OVCAR-4 ovarian): 45.5 µM
GI50 (OVCAR-5 ovarian): 3.37 µM
TGI (OVCAR-5 ovarian): 37.8 µM
GI50 (OVCAR-8 ovarian): 3.2 µM
TGI (OVCAR-8 ovarian): > 100 µM
GI50 (PC-3 prostate): 2.78 µM
TGI (PC-3 prostate): 19.8 µM
GI50 (RPMI-8226 leukemia): 1.74 µM
TGI (RPMI-8226 leukemia): 6.38 µM
GI50 (RXF 393 renal): 2.75 µM
TGI (RXF 393 renal): 8.04 µM
GI50 (SF-268 CNS): 2.67 µM
TGI (SF-268 CNS): > 100 µM
GI50 (SF-295 CNS): 2.44 µM
TGI (SF-295 CNS): 7.55 µM
GI50 (SF-539 CNS): 3.65 µM
TGI (SF-539 CNS): 18.5 µM
GI50 (SK-MEL-2 melanoma): 1.86 µM
TGI (SK-MEL-2 melanoma): 5.57 µM
GI50 (SK-MEL-28 melanoma): 2.9 µM
TGI (SK-MEL-28 melanoma): > 100 µM
GI50 (SK-MEL-5 melanoma): 1.56 µM
TGI (SK-MEL-5 melanoma): 3.63 µM
GI50 (SK-OV-3 ovarian): 2.65 µM
TGI (SK-OV-3 ovarian): 8.99 µM
GI50 (SN12C renal): 2.36 µM
TGI (SN12C renal): 8.3 µM
GI50 (SNB-19 CNS): 3.36 µM
TGI (SNB-19 CNS): 31.9 µM
GI50 (SNB-75 CNS): 1.84 µM
TGI (SNB-75 CNS): 5.55 µM
GI50 (SR leukemia): 2.93 µM
TGI (SR leukemia): 80.3 µM
GI50 (SW-620 colon): 3.4 µM
TGI (SW-620 colon): > 100 µM
GI50 (T-47D breast): 1.75 µM
TGI (T-47D breast): 8.14 µM
GI50 (TK-10 renal): 2.91 µM
TGI (TK-10 renal): 23.2 µM
GI50 (U251 CNS): 3.23 µM
TGI (U251 CNS): 24.6 µM
GI50 (UACC-257 melanoma): 1.61 µM
TGI (UACC-257 melanoma): 6.97 µM
GI50 (UACC-62 melanoma): 1.39 µM
TGI (UACC-62 melanoma): 4.61 µM
GI50 (UO-31 renal): 2.11 µM
TGI (UO-31 renal): 8.67 µM
